Measurements taken from patent US20250099485A1, “COMPOSITIONS FOR PROMOTING HAIR GROWTH” (ESTETRA SRL, priority 2021, published 2025).

Legend:
[1] = test system: mouse lymphoma cell line L5178Y TK^+/−; test: Generation of reactive oxygen species (ROS); assay type: cell-based; conditions: up to 3000 μM, 3 h exposure, vs vehicle control
Procedure: The objective of the study was to investigate the generation of reactive oxygen species (ROS) induced by the test item, estetrol (E4), in a mouse lymphoma cell line L5178Y TK^+/−.
L5178Y TK^+/− cells in logarithmic phase of growth were plated in black 96 well cell culture plates at 1×10^4 cells in 90 μL of cell culture media. Controls and test item in triplicate were applied to the cells as a 10× concentrate in 10 μL of a 10% ethanol solution in PBS (final concentration of ethanol on plate was 1%). Cells were incubated for 3 hours at 37° C., 5% CO2, and the generation of ROS was evaluated by fluorescence with a ROS reagent: the ROS reagent was freshly prepared by dissolving one ampoule of reagent (50 μg) in 70 μL DMSO and further diluting this with 2.1 mL of pre-warmed PBS. 10 μL of ROS reagent was added to each well and the plate were shaken for 30 seconds in the dark. The plates were incubated approximately at 37° C., 5% CO2 for 1 h 30 min and fluorescence was read on a plate scanner with excitation at 492 nm and emission at 520 nm.

[2] = test system: human hair follicles (HF); test: Hair follicle organ culture: LDH release into the medium; assay type: cell-based; conditions: all tested concentrations (300 nM, 3 μM, 30 μM)
Procedure: (§1) 12-44 full-length frontotemporal hair follicles (HF) were obtained from four human female donors >50 years old. Donors were caucasian female subjects […], respectively (Donor 1: 12 temporal anagen HFs; Donor 2: 29; Donor 3: 44; Donor 4: 32). After microdissection from skin as described (Edelkamp et al., Methods Mol Biol, 2020, 2154:105-119; and Langan et al., Exp Dermatol, 2015, December; 24(12):903-1), HFs were placed in adequate culture medium and allowed a 24 h rest period to allow them to recover from the trauma of microdissection. Test substance (either vehicle (0.3% EtOH) or E4 at concentrations of 30 μM, 3 μM or 300 nM) was added to the medium at the end of the 24 h. Total culturing time was 5-7 days depending on the studied parameters and the experimental question. The experimental design for the hair follicle organ culture experiment is depicted in FIG. 12. Longer term culture experiments may be used to analyze the capacity to delay the onset of catagen.
LDH is released from the cytoplasm of damaged cells into the culture medium. Therefore, the cytotoxicity of agents can be estimated based on the activity of LDH present in the culture medium using a colorimetric assay (Cytotoxicity Detection Kit [LDH], Roche) as described (Gherardini et al Int J Cosmet Sci, 2019, April; 41(2):164-182). […]

[3] = test system: Normal Human Dermal Fibroblasts (NHDFs); test: Colonization of acellular area (IBIDI gap closure), fibroblasts; assay type: cell-based; conditions: for NHDF Migration (+MMC) (colonization of acellular area vs ethanol control): presence of mitomycin C, 6 h and 24 h contact, cell gives time of significant effect
Procedure: The study consists in an in vitro assay aiming to evaluate the properties of E4 and E2 at 4 concentrations each on keratinocytes and fibroblasts. In this assay, the measurement of the colonization of a standard acellular surface generated from a confluent monolayer of cells using a dedicated culture device (IBIDI chamber) is performed. The assay is performed in absence and in presence of a proliferation inhibitor to focus on cell proliferation and migration or on migration only, respectively.
Normal Human foreskin-derived Dermal Fibroblast (NHDFs, ATCC) cells were grown in phenol-free Dulbecco's Modified Eagle Medium (DMEM, ThermoFisher Scientific) supplemented with 10% of Foetal Bovine Serum (FBS, ThermoFisher Scientific), L-glutamine and antibiotics. The cells were maintained in a humidified incubator at 37° C. with a 5% CO2 atmosphere.
Cells were plated in 2-well silicone inserts with a defined cell free gap (IBIDI chambers; IBIDI GmbH, 80209) that was previously inserted on 12-well culture plates. This culture device allows to create a standardized 500 μm±100 μm cell free gap for monitoring cell colonization. 24 h after seeding, when the culture reached high confluency, cells in the insert were treated, or not, with mitomycin C (MMC) at 10 μg/ml during 2 h. After these 2 hours, the insert was removed, and cells were treated with E2 or E4 in presence or not of MMC for additional 2 h. Then, if appropriate, the culture medium was removed and cells were treated with E2 or E4 for 22 h, in absence of MMC.
For the assay, keratinocytes were plated in Epilife medium without HKGS and all the treatments were performed in this medium. Fibroblasts were plated in DMEM medium containing only 2.5% of FBS and the treatments were performed in absence of FBS.
E2 and E4 were applied at 4 concentrations each (10^−7M, 10^−8M, 10^−9M, 10^−10M). In parallel, cells were treated with a positive control (HKGS 1% for human keratinocytes and PDGF-BB at 10 ng/ml for human fibroblasts).
To monitor cell colonization and to evaluate the gap closure rate, pictures of the gap were taken after different times: at time 0 h, corresponding to the beginning of the treatment with E2 or E4 and to the removal of the culture insert, at time 6 h and at time 24 h (corresponding to the end of the treatments with E2 or E4). Pictures were taken with a microscope Zeiss (Axiover 25-10× objective) and with a camera Invenio2EIII (DeltaPix—Lux-Optic). The colonized areas were quantified from the pictures by the use of the WimAsis platform—WimScratch software. For each insert, 3 pictures were taken at each time. As each condition was performed in triplicates, it means a total of 9 pictures per condition and per time point of acquisition

[4] = test system: CD34 positive cells in the suprabulbar ORS; test: Hair follicle organ culture: CD34 expression, stem cell progeny; assay type: cell-based, human; conditions: vs vehicle
Procedure: as §1
CD34 is a marker expressed by the progeny of HF bulge stem cells. It is expressed in the most external layer of the outer root sheet (ORS) below the isthmus (sub-bulge to suprabulbar regions) (Purba et al., BioEssays, 2014, May; 36(5):513-25). CD34 expression and percentage of CD34^+ cells were analyzed in the suprabulbar ORS.

SMILES: C[C@]12CC[C@@H]3c4ccc(O)cc4CC[C@H]3[C@@H]1[C@@H](O)[C@@H](O)[C@@H]2O [E4, 1,3,5 (10)-estratrien-3,15alpha,16alpha,17beta-tetrol]
- levels of ROS [1]: dose-dependent decrease
- HF cytotoxicity (LDH release into the medium) [2]: did not induce HF cytotoxicity
- NHDF Migration (+MMC) (colonization of acellular area vs ethanol control) ([3]; 10^−7M): significantly increase the colonization of the acellular area
- NHDF Migration (+MMC) (colonization of acellular area vs ethanol control) ([3]; 10^−8M): significantly increase the colonization of the acellular area
- NHDF colonization of the cell-free area ([3]; absence of MMC, all four concentrations): not able to significantly increase
- increased percentage of CD34 positive cells in the suprabulbar ORS ([4]; 300 nM): tendentially
- increased percentage of CD34 positive cells in the suprabulbar ORS ([4]; 3 μM): significantly
- increased percentage of CD34 positive cells in the suprabulbar ORS ([4]; 30 μM): tendentially
